Source: PubChem BioAssay AID2060501 (Molecular Pharmacology Branch, DTP, NCI, 2025)

System: 282377-053-R-J1-PDC complex spheroids, viability
Assay: Anticancer human tumor 282377-053-R-J1-PDC patient-derived colon adenocarcinoma cell line growth inhibition [GQUAD]
Details: for IC50: curve of first compound; for viability, T/C: stronger effect = lower value
Source text: DNA G-quadruplex Stabilizer Agents in Combinations in Complex Spheroids
A high-throughput screen of multi-cell type tumor spheroids was designed to identify active combinations of DNA G-quadruplex stabilizer agents and targeted small molecules. Complex spheroids include a stromal component modeled by human endothelial cells (HUVEC) and fibroblasts modeled by human mesenchymal stem cells (MSCs). The concentration ranges selected for each drug and investigational agent were based upon clinically achievable concentrations if the clinical Cmax of the agent was known.
Compounds. The drugs and investigational agents: pidnarulex (CX-5461; NSC782164), APTO-253 (NSC789042), BRACO-19 (NSC847499), peposertib (NSC802822), ceralasertib (NSC780249), elimusertib (NSC800525), camonsertib (NSC841442), AZD-1390 (NSC803789), olaparib (NSC753686), talazoparib (NSC767125), ART-558 (NSC835418), sotorasib (NSC818433), MRTX-1133 (NSC836407), SN-38 (NSC673596), topotecan (NSC609699), etoposide (NSC141540), doxorubicin (NSC123127), gemcitabine (NSC613327), 5-fluorouracil (NSC19893), paclitaxel (NSC125973), vemurafenib (NSC761431), panobinostat (NSC761190), R-306465 (JNJ-16241199; NSC773264), adavosertib (NSC754352), TP-3654 (NSC805149), carboplatin (NSC241240), KSQ-4279 (NSC840948), and staurosporine (NSC755774) were obtained from the National Cancer Institute (NCI) Developmental Therapeutics Program Chemical Repository (34). The FDA-approved anticancer drug set is available from the NCI Developmental Therapeutics Program. […] The stock solutions were prepared in dimethyl sulfoxide (DMSO, Sigma-Aldrich, St. Louis, MO, cat. D2650) at 800-fold the tested concentration and stored at -70 degrees C prior to their use. All drugs and investigational agents were tested over a range starting from a high concentration at or near the clinical Cmax and decreasing in half-log increments. If the clinical Cmax for an agent had not been determined, the highest concentration tested was 10 microM.
2.3 Cell Culture. All cells were maintained in an incubator at 37 degrees C and 5% CO2 with 95% humidity. The PDC lines were cultured according to standard operating procedures established by the NCI PDMR. All PDCs were thawed and cultured in Matrigel-coated flasks prepared with a working solution of 1X Ham's F-12 nutrient mix, without supplementation (Invitrogen, cat. 11765054), 100 U/mL penicillin-streptomycin (Invitrogen, cat. 15140122), and 2.5% Matrigel (Corning Inc., cat. 354248) for the first three passages. The 857933-349-R-J2-PDC line was cultured in 6C/Colon 1B media, which includes advanced DMEM/F-12 (Thermo Fisher Scientific, cat. 12634028), 10 mM HEPES (Thermo Fisher Scientific, cat. 15630080), 1X GlutaMAX supplement (Thermo Fisher Scientific, cat. 35050061), 0.1 mg/mL primocin (InvivoGen, cat. ant-pm-2), 10% defined fetal bovine serum, heat inactivated (HyClone Laboratories Inc., cat. SH30070.03HI), 50% L-WRN conditioned media (ATCC, cat. CRL-3276), 1.25 mM N-Acetyl-L-cysteine (Sigma-Aldrich, cat. A9165), 10 mM nicotinamide (Sigma-Aldrich, cat. N0636), 1X B-27 supplement (Thermo Fisher Scientific, cat. 17504044), 1X N-2 supplement (Thermo Fisher Scientific, cat. 17502048), 10 microM Y-27632 dihydrochloride (Tocris Bioscience, cat. 1254), and 50 ng/mL human EGF recombinant protein (Thermo Fisher Scientific, cat. PHG0311). The 485176-168-R4-J1-PDC line was cultured in Panc media, which includes all 6C/Colon 1B media components plus 100 ng/mL human FGF-10 (Thermo Fisher Scientific, cat. 100-26), 500 nM SB-431542 (Selleckchem, cat. S1067), and gastrin (Tocris, cat. 3006).
[…]

[1] = second compound 0.0316 µM, first compound 0.0316 µM
[2] = second compound 0.0316 µM, first compound 0.1 µM
[3] = second compound 0.0316 µM, first compound 0.316 µM
[4] = second compound 0.0316 µM, first compound 1 µM
[5] = second compound 0.0316 µM, first compound 3.16 µM
[6] = second compound 0.0316 µM, first compound 10 µM
[7] = second compound 0.1 µM, first compound 0.0316 µM
[8] = second compound 0.1 µM, first compound 0.1 µM
[9] = second compound 0.1 µM, first compound 0.316 µM
[10] = second compound 0.1 µM, first compound 1 µM
[11] = second compound 0.1 µM, first compound 3.16 µM
[12] = second compound 0.1 µM, first compound 10 µM
[13] = second compound 0.316 µM, first compound 0.0316 µM
[14] = second compound 0.316 µM, first compound 0.1 µM
[15] = second compound 0.316 µM, first compound 0.316 µM
[16] = second compound 0.316 µM, first compound 1 µM
[17] = second compound 0.316 µM, first compound 3.16 µM
[18] = second compound 0.316 µM, first compound 10 µM
[19] = second compound 1 µM, first compound 0.0316 µM
[20] = second compound 1 µM, first compound 0.1 µM
[21] = second compound 1 µM, first compound 0.316 µM
[22] = second compound 1 µM, first compound 1 µM
[23] = second compound 1 µM, first compound 3.16 µM
[24] = second compound 1 µM, first compound 10 µM
[25] = second compound 3.16 µM, first compound 0.0316 µM
[26] = second compound 3.16 µM, first compound 0.1 µM
[27] = second compound 3.16 µM, first compound 0.316 µM
[28] = second compound 3.16 µM, first compound 1 µM
[29] = second compound 3.16 µM, first compound 3.16 µM
[30] = second compound 3.16 µM, first compound 10 µM
[31] = second compound 10 µM, first compound 0.0316 µM
[32] = second compound 10 µM, first compound 0.1 µM
[33] = second compound 10 µM, first compound 0.316 µM
[34] = second compound 10 µM, first compound 1 µM
[35] = second compound 10 µM, first compound 3.16 µM
[36] = second compound 10 µM, first compound 10 µM
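Note: spheroids exposed to compounds for 7 days before readout.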
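Throughout, for viability, T/C: percent of vehicle DMSO control viability with 100% = untreated-like growth.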

CC(C)n1c(=O)n(C)c2cnc3cc(F)c(-c4ccc(OCCCN5CCCCC5)nc4)cc3c21 + CN(C)c1ccc(Nc2c3ccc(NC(=O)CCN4CCCC4)cc3nc3cc(NC(=O)CCN4CCCC4)ccc23)cc1
IC50 (second compound 0.0316 µM): > 10000 nM
IC50 (second compound 0.1 µM): > 10000 nM
IC50 (second compound 0.316 µM): > 10000 nM
IC50 (second compound 1 µM): > 10000 nM
IC50 (second compound 3.16 µM): > 10000 nM
IC50 (second compound 10 µM): > 10000 nM
viability, T/C [1]: 97.9%
viability, T/C [2]: 108%
viability, T/C [3]: 102%
viability, T/C [4]: 106%
viability, T/C [5]: 104%
viability, T/C [6]: 101%
viability, T/C [7]: 92.5%
viability, T/C [8]: 101%
viability, T/C [9]: 89.5%
viability, T/C [10]: 108%
viability, T/C [11]: 89.4%
viability, T/C [12]: 90.9%
viability, T/C [13]: 100%
viability, T/C [14]: 107%
viability, T/C [15]: 108%
viability, T/C [16]: 103%
viability, T/C [17]: 88.3%
viability, T/C [18]: 101%
viability, T/C [19]: 106%
viability, T/C [20]: 96.8%
viability, T/C [21]: 99.7%
viability, T/C [22]: 94.4%
viability, T/C [23]: 105%
viability, T/C [24]: 91%
viability, T/C [25]: 113%
viability, T/C [26]: 108%
viability, T/C [27]: 102%
viability, T/C [28]: 114%
viability, T/C [29]: 110%
viability, T/C [30]: 108%
viability, T/C [31]: 106%
viability, T/C [32]: 102%
viability, T/C [33]: 110%
viability, T/C [34]: 99.7%
viability, T/C [35]: 97.7%
viability, T/C [36]: 57.7%

CC1COCCN1c1cc(-c2ccnn2C)c2ccnc(-c3ccn[nH]3)c2n1 (centres undefined) + CN(C)c1ccc(Nc2c3ccc(NC(=O)CCN4CCCC4)cc3nc3cc(NC(=O)CCN4CCCC4)ccc23)cc1
IC50 (second compound 0.0316 µM): 612 nM
IC50 (second compound 0.1 µM): 717 nM
IC50 (second compound 0.316 µM): 480 nM
IC50 (second compound 1 µM): 559 nM
IC50 (second compound 3.16 µM): 1080 nM
IC50 (second compound 10 µM): 745 nM
viability, T/C [1]: 86.5%
viability, T/C [2]: 88%
viability, T/C [3]: 61.9%
viability, T/C [4]: 40.6%
viability, T/C [5]: 34.6%
viability, T/C [6]: 26.5%
viability, T/C [7]: 91%
viability, T/C [8]: 75.7%
viability, T/C [9]: 67.1%
viability, T/C [10]: 41.7%
viability, T/C [11]: 32.8%
viability, T/C [12]: 24.8%
viability, T/C [13]: 82%
viability, T/C [14]: 65.4%
viability, T/C [15]: 56.8%
viability, T/C [16]: 38.3%
viability, T/C [17]: 38.5%
viability, T/C [18]: 26.4%
viability, T/C [19]: 79.1%
viability, T/C [20]: 101%
viability, T/C [21]: 67.3%
viability, T/C [22]: 36.7%
viability, T/C [23]: 32.6%
viability, T/C [24]: 27.8%
viability, T/C [25]: 84.5%
viability, T/C [26]: 74%
viability, T/C [27]: 67.4%
viability, T/C [28]: 48.6%
viability, T/C [29]: 38.6%
viability, T/C [30]: 26.7%
viability, T/C [31]: 85.1%
viability, T/C [32]: 75.4%
viability, T/C [33]: 64.1%
viability, T/C [34]: 42.7%
viability, T/C [35]: 38.6%
viability, T/C [36]: 29%
